Data on 30 compounds can be found in US8362065B2, “Carbazole carboxamide compounds useful as kinase inhibitors” (Bristol-Myers Squibb Company, priority 2008, dated 2013).

In this assay the target is T1, human recombinant Btk (Homo sapiens, UniProt Q06187).
T1 construct: purchased Invitrogen Corporation
T1 sequence (Q06187 whole entry): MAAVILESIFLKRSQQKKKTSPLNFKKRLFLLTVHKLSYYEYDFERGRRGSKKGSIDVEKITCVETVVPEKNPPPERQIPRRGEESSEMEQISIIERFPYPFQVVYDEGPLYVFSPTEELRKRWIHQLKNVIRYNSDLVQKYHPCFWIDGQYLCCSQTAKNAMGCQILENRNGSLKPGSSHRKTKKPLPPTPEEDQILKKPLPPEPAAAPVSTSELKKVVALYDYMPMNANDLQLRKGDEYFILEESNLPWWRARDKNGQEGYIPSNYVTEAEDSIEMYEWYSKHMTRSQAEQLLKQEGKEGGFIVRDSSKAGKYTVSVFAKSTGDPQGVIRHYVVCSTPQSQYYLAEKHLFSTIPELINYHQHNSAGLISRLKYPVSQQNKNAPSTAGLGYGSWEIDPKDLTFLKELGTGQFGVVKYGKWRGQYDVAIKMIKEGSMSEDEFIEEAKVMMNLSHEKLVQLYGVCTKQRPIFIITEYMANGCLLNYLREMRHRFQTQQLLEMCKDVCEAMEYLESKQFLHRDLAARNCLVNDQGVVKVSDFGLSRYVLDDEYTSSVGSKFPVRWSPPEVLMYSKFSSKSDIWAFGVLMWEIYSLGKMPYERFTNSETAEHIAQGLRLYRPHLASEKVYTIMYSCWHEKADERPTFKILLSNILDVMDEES
The assay is described as follows: Human Recombinant Btk Enzyme Assay. The format is biochemical. The note with it: human recombinant Btk 1 nM, ATP 20 μM, 60 min at room temperature; read-out: IC50 for Inhibition of Btk.
As to “7-(1,2-dihydroxyethyl)-4-(2-methyl-3-(6-methyl-1-oxoisoindolin-2-yl)phenyl)-9H-carbazole-1-carboxamide^[b] [Example 70-12]”, the IC50 was 1.3 nM.
With `Cc1c(NC(=O)c2ccc(F)cc2)cccc1-c1ccc(C(N)=O)c2[nH]c3cc(C(O)CO)ccc3c12` (racemic) [Example 70-2] the figure was 2.2 nM.
With `Cc1c(-c2ccc(C(N)=O)c3[nH]c4cc(C(O)CO)ccc4c23)cccc1N1Cc2ccccc2C1=O` (racemic) [Example 70-3, 7-((RS)-1,2-dihydroxyethyl)-4-(2-methyl-3-(1-oxoisoindolin-2-yl)phenyl)-9H-carbazole-1-carboxamide] the figure was 2.3 nM.
With `Cc1ccc2c(c1)C(=O)N(c1cccc(-c3ccc(C(N)=O)c4[nH]c5cc(C(O)CO)ccc5c34)c1C)C2` (racemic) [Example 70-5, 7-((RS)-1,2-dihydroxyethyl)-4-(2-methyl-3-(6-methyl-1-oxoisoindolin-2-yl)phenyl)-9H-carbazole-1-carboxamide] the figure was 1.6 nM; with `Cc1c(-c2ccc(C(N)=O)c3[nH]c4cc(C(O)CO)ccc4c23)cccc1N1Cc2ccc(F)cc2C1=O` (racemic) [Example 70-6, 7-((RS)-1,2-dihydroxyethyl)-4-(3-(6-fluoro-1-oxoisoindolin-2-yl)-2-methylphenyl)-9H-carbazole-1-carboxamide], 0.8 nM.
As for `Cc1c(-c2ccc(C(N)=O)c3[nH]c4cc(C(=O)N5CCN(C)CC5)ccc4c23)cccc1N(C(C)C)S(C)(=O)=O` (single isomer, unassigned) [Example 10-2, 4-(3-(N-isopropylmethylsulfonamido)-2-methylphenyl)-7-(4-methylpiperazine-1-carbonyl)-9H-carbazole-1-carboxamide], the 50% inhibitory concentration (IC50) was determined as 4500 nM.
With `Cc1c(-c2ccc(C(N)=O)c3[nH]c4cc(C(=O)N5CCN(C)CC5)ccc4c23)cccc1N(C(C)C)S(C)(=O)=O` (single isomer, unassigned) [Example 10-3, 4-(3-(N-isopropylmethylsulfonamido)-2-methylphenyl)-7-(4-methylpiperazine-1-carbonyl)-9H-carbazole-1-carboxamide] the figure was 4900 nM.
Regarding `CN1CCN(C(=O)C2CCc3c([nH]c4c(C(N)=O)ccc(Br)c34)C2)CC1` (stereo not drawn) [Example 1-3, 5-bromo-2-(4-methylpiperazine-1-carbonyl)-2,3,4,9-tetrahydro-1H-carbazole-8-carboxamide], the IC50 came out at 490 nM.
With `CN1CCN(C(=O)c2ccc3c(c2)[nH]c2c(C(N)=O)ccc(-c4nccc5ccccc45)c23)CC1` [Example 2-2, 4-(isoquinolin-1-yl)-7-(4-methylpiperazine-1-carbonyl)-9H-carbazole-1-carboxamide] the figure was 1300 nM.
Turning to `CN1CCN(C(=O)c2ccc3c(c2)[nH]c2c(C(N)=O)ccc(-c4cc(F)ccc4F)c23)CC1` [Example 2-12, 4-(2,5-difluorophenyl)-7-(4-methylpiperazine-1-carbonyl)-9H-carbazole-1-carboxamide], the 50% inhibitory concentration (IC50) came to 16 nM.
Take `CN1CCN(C(=O)c2ccc3c(c2)[nH]c2c(C(N)=O)ccc(-c4cc(Cl)ccc4F)c23)CC1` [Example 2-13, 4-(5-chloro-2-fluorophenyl)-7-(4-methylpiperazine-1-carbonyl)-9H-carbazole-1-carboxamide]: the concentration for half-maximal inhibition (IC50) was found to be 15 nM.
`NC(=O)c1ccc(-c2cc(C(=O)O)ccc2F)c2c1[nH]c1cc(C(=O)N3CCOCC3)ccc12` [Example 2-16, 3-(1-carbamoyl-7-(morpholine-4-carbonyl)-9H-carbazol-4-yl)-4-fluorobenzoic acid]: the IC50 worked out at 16 nM.
With `CN1CCN(C(=O)c2ccc3[nH]c4c(C(N)=O)ccc(-c5ccccc5F)c4c3c2)CC1` [Example 2-18, 4-(2-fluorophenyl)-6-(4-methylpiperazine-1-carbonyl)-9H-carbazole-1-carboxamide] the figure was 16 nM; with `CCNC(=O)c1cc2c(-c3ccc(C(N)=O)c4[nH]c5cc(C(=O)N6CCN(C)CC6)ccc5c34)cccc2[nH]1` [Example 2-24, 4-(2-(ethylcarbamoyl)-1H-indol-4-yl)-7-(4-methylpiperazine-1-carbonyl)-9H-carbazole-1-carboxamide], 800 nM.
With `CN1CCN(C(=O)c2ccc3c(c2)[nH]c2c(C(N)=O)ccc(-c4cccc5[nH]c(C(=O)Nc6ccc(F)cc6)cc45)c23)CC1` [Example 2-25, 4-(2-(4-fluorophenylcarbamoyl)-1H-indol-4-yl)-7-(4-methylpiperazine-1-carbonyl)-9H-carbazole-1-carboxamide] the figure was 3100 nM; with `CC(=O)Nc1ccc(F)c(-c2ccc(C(N)=O)c3[nH]c4cc(C(=O)N5CCN(C)CC5)ccc4c23)c1` [Example 2-35, 4-(5-acetamido-2-fluorophenyl)-7-(4-methylpiperazine-1-carbonyl)-9H-carbazole-1-carboxamide], 16 nM.
Regarding `CN1CCN(C(=O)c2ccc3c(c2)[nH]c2c(C(N)=O)ccc(-c4cc(NC(=O)c5ccc(F)cc5)ccn4)c23)CC1` [Example 2-43, 4-(4-(4-fluorobenzamido)pyridin-2-yl)-7-(4-methylpiperazine-1-carbonyl)-9H-carbazole-1-carboxamide], the IC50 is 520 nM.
As to `NC(=O)c1ccc(-c2ccccc2F)c2c1[nH]c1cc(C(=O)N3CCOCC3)ccc12` [Example 3-9, 4-(2-fluorophenyl)-7-(morpholine-4-carbonyl)-9H-carbazole-1-carboxamide], the IC50 came out at 17 nM.
With `CCOc1ccc2ccccc2c1-c1ccc(C(N)=O)c2[nH]c3cc(C(=O)N4CCN(C)CC4)ccc3c12` [Example 3-18] the figure was 2700 nM; with `CN1CCN(C(=O)c2ccc3c(c2)[nH]c2c(C(N)=O)ccc(-c4cccc5cccnc45)c23)CC1` [Example 3-19], 1800 nM.
With `CCOc1ccc(F)c(-c2ccc(C(N)=O)c3[nH]c4cc(C(=O)N5CCN(C)CC5)ccc4c23)c1` [Example 3-39], the IC50 was found to be 16 nM.
With `CN1CCN(C(=O)c2ccc3c(c2)[nH]c2c(C(N)=O)ccc(-c4ccccc4)c23)CC1` [Example 3-45] the figure was 16 nM.
With `CN1CCN(C(=O)c2ccc3c(c2)[nH]c2c(C(N)=O)ccc(-c4cccc(-c5ccccc5)c4)c23)CC1` [Example 3-48], the IC50 turned out to be 390 nM.
With `CN1CCN(C(=O)c2ccc3c(c2)[nH]c2c(C(N)=O)ccc(-c4cccc5c4oc4ccccc45)c23)CC1` [Example 3-49] the figure was 690 nM; with `CN1CCN(C(=O)c2ccc3c(c2)[nH]c2c(C(N)=O)ccc(-c4ccccc4Cl)c23)CC1` [Example 3-69], 15 nM.
With `CN1CCN(C(=O)c2ccc3c(c2)[nH]c2c(C(N)=O)ccc(-c4cccc5[nH]c(C(=O)N6CCCC6)cc45)c23)CC1` [Example 3-75] the figure was 920 nM; with `CN1CCN(C(=O)c2ccc3c(c2)[nH]c2c(C(N)=O)ccc(-c4c[nH]c5cc(-c6ccc(F)cc6)ccc45)c23)CC1` [Example 3-83], 940 nM; with `Cc1c(-c2ccc(C(N)=O)c3[nH]c4c(c23)CCC(C(=O)NCCCN(C)C)C4)cccc1N1Cc2ccccc2C1=O` (stereo not drawn) [Example 3-101], 18 nM.
For `CC(C)(C)OC(=O)n1cc(-c2ccc(C(N)=O)c3[nH]c4c(c23)CCC(C(=O)NC2CCOCC2)C4)cn1` (stereo not drawn) [Example 3-116], the IC50 is 1600 nM.
Take `Cc1c(-c2ccc(C(N)=O)c3[nH]c4c(c23)CCC(C(=O)N2CCN(C)CC2)C4)cccc1N1Cc2ccccc2C1=O` (stereo not drawn) [Example 3-122]: the IC50 amounted to 18 nM.
